Key:
[1] = tested on: ER pathway; experiment: Predicted ER pathway activity in Tamoxifen resistant MCF7 cell line (GSE21618); type: cell-based; settings: Tamoxifen resistant cell line stimulated with E2 and treated with Tamoxifen (TamR.E2_Tam); 1, 2, 3, 6, 12, 24 and 48 h
Description: (§1) The ER (pseudo-)linear model was trained using continuous expression data of GSE8597, the “most discriminative probesets” (underlined probesets in Table 2) and “log odds” weights (see training results in FIG. 10). Different stimulation regimes were applied, denoted in the different groups of samples, and the expression of mRNA was measured by microarray at 0, 1, 2, 3, 6, 12, 24, 48 hours, denoted by the consecutive samples in the groups.
(§2) The (pseudo-)linear model of the ER pathway, constructed using a node for the transcription factor presence and a layer of probesets (Table 2) associated with the target genes of the ER pathway, analogous to FIG. 2 as described herein, and trained as described herein, was used to calculate the ER pathway activity score.
(§3) With respect to FIG. 20, Tamoxifen is a drug currently used for the treatment of ER+ (estrogen receptor positive) breast cancer. It acts as a partial antagonist of the estrogen receptor inhibiting the uncontrolled cell proliferation which is thought to be induced by ER signaling. […] Many studies have been conducted to investigate this so-called Tamoxifen resistance. The publicly available GSE21618 data set is the result of one of such study and contains microarray data of Tamoxifen resistant and wildtype MCF7 cell lines under different treatment regimes. […]

[2] = tested on: ER pathway; experiment: Predicted ER pathway activity in wild type MCF7 cell line (GSE21618); type: cell-based
Description: as §1, §2, §3

[3] = tested on: ER pathway; experiment: ER pathway activity score in MCF7 cells stimulated with or deprived of E2 (GSE11352); type: cell-based; settings: MCF7, longer exposure times (12, 24, 48 hours) to ER stimulating agent
Excerpt: FIG. 12 ER pathway prediction in stimulation response data of MCF7 cells treated with ER stimulating agent (E2) or control for several treatment intervals (GSE11352, continuous data). The model is trained using continuous expression data of GSE8597, the “most discriminative probesets” (underlined probesets in Table 2) and “log odds” weights (see training results in FIG. 10).
In another example, a publically available data set of MCF7 cell lines stimulated with or deprived of ER stimulating agent (E2) with expression levels measured at 12 hours, 24 hours and 48 hours after starting stimulation or deprivation (GSE11352) was used to calculate the ER activity scores using the trained ER (pseudo-)linear model as described herein. […] With the exception of the starvation of 48 hours, the predicted ER activity scores nicely correlates with the knowledge that prolonged stimulation result in higher ER activity and vice versa. Inversely, this example implies that the ER activity score can be used to monitor efficacy or inefficacy of stimulation or inhibition of ER activity treatments.

[4] = tested on: ER pathway; experiment: ER activity score validation in MCF7 breast cancer cell line (GSE9253); type: cell-based; settings: MCF7 sample stimulated with E2, 3 hours
Excerpt: FIG. 17 ER validation results of a stimulation experiment with MCF7 cells (GSE9253, continuous data). The (pseudo-)linear model was trained using continuous expression data of GSE8597, the “most discriminative probesets” (underlined probesets in Table 2) and “log odds” weights (see training results in FIG. 10). It is clear from the MCF7 cells stimulated with E2, ER stimulating agent, that the defined threshold was set too high. The reason for this discrepancy could be a different stimulation regime (i.e. higher E2 concentration, but shorter stimulation time, etc.). Nevertheless, the difference of the calculated ER activity scores of the stimulated and non-stimulated cells is evident.
In FIG. 17 the validation results of the trained ER (pseudo-)linear model is shown for two microarrays measured using a MCF7 breast cancer cell line sample, one stimulated with estradiol (E2) the other one with a negative control (EtOH), originating from the GSE9253 data set. The difference in ER activity score is evident from FIG. 17. […] This is the result of the threshold defining either an active or passive state was set too high for this particular experiment. […]

[5] = tested on: AR pathway; settings: LNCaP stimulated with DHT for 4 hours, compared with 16 hours
Excerpt: FIG. 13 AR training results using fuzzy transformed expression data of GSE7868, “all probesets” as mentioned in Table 4 and “black and white” weights. The 1st and 2nd group of samples (from the left) has been used as negative and positive training samples, respectively.
The expression data of these stimulation experiments are publically available in the GSE7868 dataset that has been fuzzy transformed as described herein. […] The 1st and 2nd group of samples from the left has been used as negative and positive training samples, respectively.

CC/C(=C(\c1ccccc1)c1ccc(OCCN(C)C)cc1)c1ccccc1 [Tamoxifen]
predicted ER pathway activity [1]: ineffective | ER pathway activity score in time ([2]; wild type MCF7 stimulated with E2 and treated with Tamoxifen (wt2.E2_Tam)): decreasing ER pathway activity score in time

C[C@]12CC[C@@H]3c4ccc(O)cc4CC[C@H]3[C@@H]1CC[C@@H]2O [E2, 17beta-estradiol]
ER pathway activity score [3]: increase for longer exposure times | ER activity score [4]: slightly negative ER activity score | ER activity predictions ([2]; wild type MCF7 treated with 17beta-estradiol (wt1.E2)): increasing ER positive activity predictions

C[C@]12CCC(=O)C[C@@H]1CC[C@@H]1[C@@H]2CC[C@]2(C)[C@@H](O)CC[C@@H]12 [DHT, Dihydrotestosterone]
AR activity [5]: demonstrates AR activity, albeit lower activity levels than the cells stimulated for 16 hours

Source: patent US11306360B2, “Assessment of cellular signaling pathway activity using linear combination(s) of target gene expressions” (KONINKLIJKE PHILIPS N.V., priority 2012, dated 2022)
